Experimental data taken from ChEMBL document CHEMBL1151073, “Substituted 1,3,5-triazines as cholesteryl ester transfer protein inhibitors” (Bioorg Med Chem Lett, 1996).

molecular target: T1, Cholesteryl ester transfer protein (Homo sapiens) (UniProt P11597); experiment: Compound was tested for inhibitory activity against Cholesteryl ester transfer protein at 50 uM
T1 sequence (whole entry): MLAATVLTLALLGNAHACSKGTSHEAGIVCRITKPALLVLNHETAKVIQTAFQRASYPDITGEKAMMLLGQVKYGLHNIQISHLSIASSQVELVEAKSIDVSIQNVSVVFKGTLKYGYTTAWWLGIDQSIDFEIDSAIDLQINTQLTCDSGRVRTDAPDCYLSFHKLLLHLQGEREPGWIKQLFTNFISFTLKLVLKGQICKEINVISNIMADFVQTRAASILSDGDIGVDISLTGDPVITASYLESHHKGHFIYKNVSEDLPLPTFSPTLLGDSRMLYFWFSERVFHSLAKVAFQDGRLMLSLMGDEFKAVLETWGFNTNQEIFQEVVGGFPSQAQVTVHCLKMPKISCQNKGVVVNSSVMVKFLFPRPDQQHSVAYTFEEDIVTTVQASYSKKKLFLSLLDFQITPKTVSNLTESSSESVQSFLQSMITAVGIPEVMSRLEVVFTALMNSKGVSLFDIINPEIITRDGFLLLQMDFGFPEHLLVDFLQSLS

Structure (SMILES)	inhibition [%]
Clc1ccc(N2CCN(c3nc(Cl)nc(N4CCNCC4)n3)CC2)cc1	37
CCCCOc1nc(N2CCNCC2)nc(N2CCN(c3ccc(Cl)cc3)CC2)n1	57
Clc1ccc(N2CCN(c3ncnc(N4CCNCC4)n3)CC2)cc1	14
Clc1ccc(N2CCN(c3nc(OCCc4ccccc4)nc(N4CCNCC4)n3)CC2)cc1	66
C=Cc1nc(N2CCNCC2)nc(N2CCN(c3ccc(Cl)cc3)CC2)n1	48
Clc1ccc(N2CCN(c3nc(NCc4ccccc4)nc(N4CCNCC4)n3)CC2)cc1	52
Oc1nc(N2CCNCC2)nc(N2CCN(c3ccc(Cl)cc3)CC2)n1	11

molecular target: T2, Cholesteryl ester transfer protein (Homo sapiens, UniProt P11597); experiment: Inhibition of Cholesteryl ester transfer protein
T2 sequence (P11597 whole entry): T1 sequence (whole entry)

Structure (SMILES)	IC50 [µM]
CCCCc1nc(N2CCNCC2)nc(N2CCN(c3ccc(Cl)cc3)CC2)n1	11
Clc1ccc(N2CCN(c3nc(N/N=C/c4ccccc4)nc(N4CCNCC4)n3)CC2)cc1	10
Clc1ccc(N2CCN(c3nc(N4CCNCC4)nc(N4CCc5ccccc5C4)n3)CC2)cc1	5
CN(CCc1ccccc1)c1nc(N2CCNCC2)nc(N2CCN(c3ccc(Cl)cc3)CC2)n1	6
Clc1ccc(Cc2nc(N3CCNCC3)nc(N3CCN(c4ccc(Cl)cc4)CC3)n2)cc1	9
Clc1ccc(N2CCN(c3nc(Cc4ccc5ccccc5c4)nc(N4CCNCC4)n3)CC2)cc1	5
Clc1ccc(N2CCN(c3nc(NCCc4ccccc4)nc(N4CCNCC4)n3)CC2)cc1	45
Oc1ccc(CCNc2nc(N3CCNCC3)nc(N3CCN(c4ccc(Cl)cc4)CC3)n2)cc1O	21
Clc1ccc(N2CCN(c3nc(-c4ccccc4)nc(N4CCNCC4)n3)CC2)cc1	11
Clc1ccc(N2CCN(c3nc(C#Cc4ccccc4)nc(N4CCNCC4)n3)CC2)cc1	12
COc1ccc(CCNc2nc(N3CCNCC3)nc(N3CCN(c4ccc(Cl)cc4)CC3)n2)cc1O	16
Clc1ccc(N2CCN(c3nc(Cc4ccccc4)nc(N4CCNCC4)n3)CC2)cc1	9
